# Patent US7223759B2, “Antibacterial 3,5-diaminopiperidine-substituted aromatic and heteroaromatic compounds” (Anadys Pharmaceuticals, Inc., priority 2003, dated 2007)
# System: Escherichia coli (ATCC25922) or Staphylococcus aureus (ATCC25923)
# Test: Antibacterial MIC, microdilution method in Mueller-Hinton medium
# Type: cell-based
# Details: Escherichia coli, 18 h, MIC in E. coli or S. aureus; two-fold serial dilutions 64 to 0.5 μg/ml in duplicate; 18 hours of incubation at 35° C.; read-out: Potency (MIC)
# In short: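 Two-fold serial dilutions from 64 to 0.5 μg/ml, in duplicate, by broth microdilution in Mueller-Hinton medium (NCCLS M7-A5). MIC taken as the lowest concentration preventing visible growth after 18 h at 35° C.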
row,MIC [µg/mL],SMILES
1,> 64,"Cl.NC(=O)CNc1nc(N2C[C@H](N)C[C@H](N)C2)nc(N2C[C@H](N)C[C@H](N)C2)n1 [N-carbamoylmethyl-4,6-Bis-((3R,5S)-3,5-diamino-piperidin-1-yl)-[1,3,5]triazine-2-amine]"
2,> 64,"Cl.c1ccc(N2CCN(c3nc(N4CCCCC4)nc(N4CCCCC4)n3)CC2)nc1 [2-[4-(4-Fluoro-phenyl)-piperiazin-1-yl]-4,6-Bis-((3R,5S)-3,5-diamino-piperidin-1-yl)-[1,3,5]triazine]"
3,> 64,"Cl.Nc1nc(Nc2ccc(Cl)c(Cl)c2)nc(C2C[C@@H](N)C[C@@H](N)C2)n1 (stereo partly drawn) [6-((3S,5R)-3,5-Diamino-piperidin-1-yl)-N-(3,4-dichlorro-phenyl)-[1,3,5]triazine-2,4-diamine]"
4,> 64,"COc1ccc(NC(C)=O)cc1Nc1nc(N2C[C@H](N)C[C@H](N)C2)nc(N2C[C@H](N)C[C@H](N)C2)n1 [N-(5-acetylamino-2-methoxy-phenyl)-4,6-Bis-((3R,5S)-3,5-diamino-piperidin-1-yl)-[1,3,5]triazine-2-amine]"
5,> 64,"Cl.NC(=O)c1[nH]cnc1Nc1nc(N2C[C@H](N)C[C@H](N)C2)nc(N2C[C@H](N)C[C@H](N)C2)n1 [N-(5-carbamoyl-1H-imidazol-4-yl)-4,6-Bis-((3R,5S)-3,5-diamino-piperidin-1-yl)-[1,3,5]triazine-2-amine]"
6,> 64,"Cc1csc(Nc2nc(N3C[C@H](N)C[C@H](N)C3)nc(N3C[C@H](N)C[C@H](N)C3)n2)n1.Cl [N-(4-methyl-thiazol-2-yl)-4,6-Bis-((3R,5S)-3,5-diamino-piperidin-1-yl)-[1,3,5]triazine-2-amine]"

row,SMILES,MIC [µg/mL]
1,"Cc1cc(Nc2nc(N3C[C@H](N)C[C@H](N)C3)nc(N3C[C@H](N)C[C@H](N)C3)n2)ccc1NC(=O)c1ccc(O)cc1O [N-[4-(2,4-dihydroxy-benzoylamino)-3-methyl-phenyl]-4,6-Bis-((3R,5S)-3,5-diamino-piperidin-1-yl)-[1,3,5]triazine-2-amine]",< 16

# Same assay, conditions: Escherichia coli, 18 h, read-out: Potency (MIC)
row,SMILES,MIC [µg/mL]
1,"N[C@@H]1C[C@H](N)CN(c2nc(Nc3ccc(C(=O)CC(=O)Nc4ccc(F)c(Cl)c4)cc3)nc(N3C[C@H](N)C[C@H](N)C3)n2)C1 [N-{4-[2-(3-chloro-4-fluoro-phenylcarbamoyl)-acetyl]-phenyl}-4,6-Bis-((3R,5S)-3,5-diamino-piperidin-1-yl)-[1,3,5]triazine-2-amine]",< 16
2,"Cc1ccc(NNc2nc(N3C[C@H](N)C[C@H](N)C3)nc(N3C[C@H](N)C[C@H](N)C3)n2)cc1 [N-(4,6-Bis-((3R,5S)-3,5-diamino-piperidin-1-yl)-[1,3,5]triazin-2-yl)-N′-p-Tolyl-hydrazine]",< 64
3,"N[C@@H]1C[C@H](N)CN(c2nc(NNC(=O)c3ccccc3O)nc(N3C[C@H](N)C[C@H](N)C3)n2)C1 [2-Hydroxy-benzoicacid N′-[4-((3R,5S)-3,5-diamino-piperidin-1-yl)-6-((3S,5R)-3,5-diamino-piperidin-1-yl)-[1,3,5]triazin-2-yl]-hydrazide]",< 64
4,"N[C@@H]1C[C@H](N)CN(c2nc(NNc3ccc(F)cc3)nc(N3C[C@H](N)C[C@H](N)C3)n2)C1 [N-(4,6-Bis-((3R,5S)-3,5-diamino-piperidin-1-yl)-[1,3,5]triazin-2-yl)-N′-(4-Fluoro-phenyl)-hydrazine]",< 64
5,"N[C@@H]1C[C@H](N)CN(c2nc(Nc3ccc(C(=O)CC(=O)Nc4ccc(Cl)cc4F)cc3)nc(N3C[C@H](N)C[C@H](N)C3)n2)C1 [N-{4-[2-(4-chloro-2-fluoro-phenylcarbamoyl)-acetyl]-phenyl}-4,6-Bis-((3R,5S)-3,5-diamino-piperidin-1-yl)-[1,3,5]triazine-2-amine]",< 16
6,"Nc1ccc(Nc2nc(N3C[C@H](N)C[C@H](N)C3)nc(N3C[C@H](N)C[C@H](N)C3)n2)cc1OCc1ccccc1 [N-(4-amino-3-benzyloxy-phenyl)-4,6-Bis-((3R,5S)-3,5-diamino-piperidin-1-yl)-[1,3,5]triazine-2-amine]",> 64
7,"NC[C@@H]1C[C@H](N)CN1c1nc(Nc2ccc3c(c2)C(=O)c2ccccc2-3)nc(N2C[C@H](N)C[C@H](N)C2)n1 [2-[4-((2S,4S)-4-Amino-2-aminomethyl-pyrrolidin-1-yl)-6-((3R,5S)-3,5-diamino-piperidin-1-yl)-[1,3,5]triazin-2-ylamino]-fluoren-9-one]",> 64
8,"N[C@@H]1C[C@H](N)CN(c2nc(Nc3ccc(NC(=O)c4ccc(F)c(F)c4O)c(O)c3)nc(N3C[C@H](N)C[C@H](N)C3)n2)C1 [N-[4-(3,4-difluoro-2-hydroxy-benzoylamino)-3-hydroxy-phenyl]-4,6-Bis-((3R,5S)-3,5-diamino-piperidin-1-yl)-[1,3,5]triazine-2-amine]",< 64
9,"N[C@@H]1C[C@H](N)CN(c2nc(Nc3ccc(NC(=O)c4cccc([N+](=O)[O-])c4O)cc3)nc(N3C[C@H](N)C[C@H](N)C3)n2)C1 [N-[4-(2-hydroxy-3-nitro-benzoylamino)-phenyl]-4,6-Bis-((3R,5S)-3,5-diamino-piperidin-1-yl)-[1,3,5]triazine-2-amine]",> 64
10,"CC(=O)c1ccc(Nc2nc(N3C[C@H](N)C[C@H](N)C3)nc(N3C[C@@H](O)[C@@H](O)C3)n2)cc1 [1-{4-[4-((3R,5S)-3,5-Diamino-piperidin-1-yl)-6-((3R,4S)-3,4-dihydroxy-pyrrolidin-1-yl)-[1,3,5]triazin-2-ylamino]-phenyl}-ethanone]",> 64
11,"Cc1ccc2nc(-c3ccc(Nc4nc(N5C[C@H](N)C[C@H](N)C5)nc(N5C[C@H](N)C[C@H](N)C5)n4)cc3)sc2c1 [N-[4-(6-methyl-benzothiazol-2-yl)-phenyl]-4,6-Bis-((3R,5S)-3,5-diamino-piperidin-1-yl)-[1,3,5]triazine-2-amine]",< 16
12,"N[C@@H]1C[C@H](N)CN(c2nc(NNc3cccc(C(F)(F)F)c3)nc(N3C[C@H](N)C[C@H](N)C3)n2)C1 [N-(4,6-Bis-((3R,5S)-3,5-diamino-piperidin-1-yl)-[1,3,5]triazin-2-yl)-N′-(3-Trifluoromethyl-phenyl)-hydrazine]",< 64
13,"N[C@@H]1C[C@H](N)CN(c2nc(Nc3ccc(NC(=O)c4ccc5ccccc5c4O)cc3)nc(N3C[C@@H](N)[C@@H](N)C3)n2)C1 [1-Hydroxy-naphthalene-2-carboxylic acid {4-[4-((3R,5S)-3,5-diamino-piperidin-1-yl)-6-((3R,4S)-3,4-diamino-pyrrolidin-1-yl)-[1,3,5]triazin-2-ylamino]-phenyl}-amide]",< 16
14,"N[C@@H]1C[C@H](N)CN(c2nc(Nc3ccc(C(=O)CC(=O)Nc4ccc(F)c(F)c4)cc3)nc(N3C[C@@H](N)C[C@H]3CO)n2)C1 [3-{4-[4-((2S,4S)-4-Amino-2-hydroxymethyl-pyrrolidin-1-yl)-6-((3R,5S)-3,5-diamino-piperidin-1-yl)-[1,3,5]triazin-2-ylamino]-phenyl}-N-(3,4-difluoro-phenyl)-3-oxo-propionamide]",< 64
15,"N[C@@H]1C[C@H](N)CN(c2nc(Nc3ccc(C(=O)CC(=O)Nc4ccc(Cl)cc4Cl)cc3)nc(N3C[C@H](N)C[C@H](N)C3)n2)C1 [N-{4-[2-(2,4-dichloro-phenylcarbamoyl)-acetyl]-phenyl}-4,6-Bis-((3R,5S)-3,5-diamino-piperidin-1-yl)-[1,3,5]triazine-2-amine]",< 64
16,"N[C@@H]1C[C@H](N)CN(c2nc(Nc3ccc(NC(=O)c4ccc(Cl)cc4O)c(O)c3)nc(N3C[C@H](N)C[C@H](N)C3)n2)C1 [N-[4-(4-chloro-2-hydroxy-benzoylamino)-3-hydroxy-phenyl]-4,6-Bis-((3R,5S)-3,5-diamino-piperidin-1-yl)-[1,3,5]triazine-2-amine]",< 16
17,"NC[C@@H]1C[C@H](CN)CN(c2nc(Nc3ccc(NC(=O)c4ccc(Cl)cc4)c(O)c3)nc(N3C[C@H](N)C[C@H](N)C3)n2)C1 [N-{4-[4-((3R,5S)-3,5-Bis-(aminomethyl)-piperidin-1-yl)-6-((3R,5S)-3,5-diamino-piperidin-1-yl)-[1,3,5]triazin-2-ylamino]-2-hydroxy-phenyl}-4-chloro-benzamide]",< 16
18,"N[C@@H]1C[C@H](N)CN(c2nc(Nc3ccc(C(=O)CC(=O)Nc4cccc(OC(F)(F)F)c4)cc3)nc(N3C[C@H](N)C[C@H](N)C3)n2)C1 [N-{4-[2-(3-trifluoromethoxy-phenylcarbamoyl)-acetyl]-phenyl}-4,6-Bis-((3R,5S)-3,5-diamino-piperidin-1-yl)-[1,3,5]triazine-2-amine]",< 16
19,"N[C@@H]1C[C@H](N)CN(c2nc(Nc3ccc(S(=O)(=O)c4ccc([N+](=O)[O-])cc4)cc3)nc(N3C[C@H](N)C[C@H](N)C3)n2)C1 [N-[4-(4-nitro-benzenesulfonyl)-phenyl]-4,6-Bis((3R,5S)-3,5-diamino-piperidin-1-yl)-[1,3,5]triazine-2-amine]",< 64
20,"CC(=O)Nc1ccc(Nc2nc(N3C[C@H](N)C[C@H](N)C3)nc(N3C[C@H](N)C[C@H](N)C3)n2)cc1O [N-(4-acetylamino-3-hydroxy-phenyl)-4,6-Bis-((3R,5S)-3,5-diamino-piperidin-1-yl)-[1,3,5]triazine-2-amine]",> 64
21,"Cc1cc(=O)oc2cc(Nc3nc(N4C[C@H](N)C[C@H](N)C4)nc(N4C[C@H](O)C[C@H]4CN)n3)ccc12 [7-[4-((2S,4R)-2-Aminomethyl-4-hydroxy-pyrrolidin-1-yl)-6-((3R,5S)-3,5-diamino-piperidin-1-yl)-[1,3,5]triazin-2-ylamino]-4-methyl-chromen-2-one]",> 64

# Same assay, conditions: MIC in E. coli or S. aureus; two-fold serial dilutions 64 to 0.5 μg/ml in duplicate; 18 hours of incubation at 35° C.
row,SMILES,Potency (MIC)
1,"Cl.O=C(Oc1ccccc1)c1ccc(Nc2nc(N3CCCCC3)nc(N3CCCCC3)n2)cc1O [drawing 229, 4-[4-((3S,5R)-3,5-diamino-piperidin-1-yl)-6-((3R,5R)-3,5-dihydroxy-piperidin-1-yl)-[1,3,5]triazin-2-ylamino]-2-hydroxy-benzoic acidphenyl ester]",− (− means MIC>64 μg/ml in E. coli or S. aureus)
